# According to PubChem BioAssay (NCI):
#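 Protocol summary: plate cells (96-well), add compound at 5 concentrations, incubate 48 h, interpolate endpoints linearly. The concentration for full growth arrest is given as TGI.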
# Columns and labels:
# Assay in all cases: NCI tumour cell line growth inhibition, 48 h
# SNB-19 CNS = test system: SNB-19 CNS
# MOLT-4 leukemia = test system: MOLT-4 leukemia
# SF-539 CNS = test system: SF-539 CNS
# OVCAR-3 ovarian = test system: OVCAR-3 ovarian
# COLO 205 colon = test system: COLO 205 colon
# DLD-1 colon = test system: DLD-1 colon
# RXF 393 renal = test system: RXF 393 renal
# SK-MEL-28 melanoma = test system: SK-MEL-28 melanoma
# OVCAR-5 ovarian = test system: OVCAR-5 ovarian
# UO-31 renal = test system: UO-31 renal
# SK-MEL-2 melanoma = test system: SK-MEL-2 melanoma
# NCI-H522 lung = test system: NCI-H522 lung
# MALME-3M melanoma = test system: MALME-3M melanoma
# HT29 colon = test system: HT29 colon
# SK-MEL-5 melanoma = test system: SK-MEL-5 melanoma
# OVCAR-8 ovarian = test system: OVCAR-8 ovarian
# DMS 114 small cell lung = test system: DMS 114 small cell lung
# HOP-18 NSCLC = test system: HOP-18 NSCLC
# DMS 273 small cell lung = test system: DMS 273 small cell lung
# ACHN renal = test system: ACHN renal
SMILES,TGI (SNB-19 CNS),TGI (MOLT-4 leukemia),TGI (SF-539 CNS),TGI (OVCAR-3 ovarian),TGI (COLO 205 colon),TGI (DLD-1 colon),TGI (RXF 393 renal),TGI (SK-MEL-28 melanoma),TGI (OVCAR-5 ovarian),TGI (UO-31 renal),TGI (SK-MEL-2 melanoma),TGI (NCI-H522 lung),TGI (MALME-3M melanoma),TGI (HT29 colon),TGI (SK-MEL-5 melanoma),TGI (OVCAR-8 ovarian),TGI (DMS 114 small cell lung),TGI (HOP-18 NSCLC),TGI (DMS 273 small cell lung),TGI (ACHN renal)
[Cl-].[Rh+3].c1ccc(-c2ccnc3c2ccc2c(-c4ccccc4)ccnc23)cc1.c1ccc(-c2ccnc3c2ccc2c(-c4ccccc4)ccnc23)cc1.c1ccc(-c2ccnc3c2ccc2c(-c4ccccc4)ccnc23)cc1,> 100 µM,> 100 µM,> 76 µM,> 100 µM,43.3 µM,> 64.4 µM,> 100 µM,> 100 µM,> 100 µM,> 100 µM,> 100 µM,> 85.1 µM,82.9 µM,73.7 µM,50.3 µM,> 100 µM,75 µM,> 87.4 µM,83.1 µM,–
CC(C)(C)OC(=O)C1=C(C(=O)OC(C)(C)C)SC2(S1)C(C(=O)OC(C)(C)C)=C(C(=O)OC(C)(C)C)Sc1c2ssc1=O,> 100 µM,95.9 µM,–,> 100 µM,> 100 µM,–,> 100 µM,> 100 µM,> 100 µM,> 100 µM,> 100 µM,> 100 µM,> 100 µM,> 100 µM,> 100 µM,> 100 µM,–,–,–,> 100 µM
C/C=C(/C)C(=O)O[C@@H]1c2c(C)coc2C[C@H]2CC[C@H](O)[C@H](C)[C@]21C,> 100 µM,> 100 µM,87 µM,70.6 µM,> 100 µM,–,78.2 µM,> 100 µM,> 100 µM,> 100 µM,–,> 100 µM,77.9 µM,> 100 µM,> 100 µM,> 100 µM,–,–,–,> 100 µM
C=C(C)C1Cc2c(cc(O)c3c(=O)c4ccccc4n(C)c23)O1 (stereo not drawn),34.5 µM,> 100 µM,–,–,> 100 µM,> 100 µM,33.9 µM,> 100 µM,> 100 µM,–,> 100 µM,66.1 µM,> 100 µM,> 100 µM,> 100 µM,–,> 100 µM,> 100 µM,> 100 µM,> 100 µM
O=[N+]([O-])c1ccc(/C=C/c2ccc(N=Nc3ccc(/C=C/c4ccc([N+](=O)[O-])cc4S(=O)(=O)O)c(S(=O)(=O)O)c3)cc2S(=O)(=O)O)c(S(=O)(=O)O)c1,–,> 100 µM,> 100 µM,> 100 µM,> 100 µM,> 100 µM,> 100 µM,> 100 µM,> 100 µM,> 100 µM,> 100 µM,> 100 µM,> 100 µM,> 100 µM,> 100 µM,> 100 µM,> 100 µM,> 100 µM,> 100 µM,–
